Laboratory results taken from patent US11247965B2 (VenatoRx Pharmaceuticals, Inc., priority 2017, dated 2022).

Legend:
[1] = In vitro cytotoxicity, MTT cell viability assay in HepG2 cells; type: cell-based; conditions: human, Cytotoxicity CC50
Outline: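 Read-out: MTT formazan absorbance at 492 nm, expressed as % of vehicle signal; CC50 by 4-parameter non-linear regression. Parental HepG2, 20,000 cells/well, treated 7 days with compound from 30 μM down to 1.0 nM.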

[2] = test system: HBV replication in HepAD38 cells; experiment: Anti-HBV activity in HepAD38 cells, extracellular HBV DNA by QPCR; type: cell-based, HBV (genotype D, serotype ayw); conditions: Hepatitis B virus, HePAD38, 168 h, read-out: Anti-HBV EC50, HepAD38 cells, extracellular HBV DNA by QPCR, 7 days of incubation
Outline: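 HepAD38 cells (HepG2 with tet-repressible HBV genotype D genome) seeded overnight, tetracycline removed, then treated 7 days with compounds (half-log dilutions, 30 μM–10 nM; 1:200 from DMSO). Supernatant HBV DNA quantified by QPCR against standard curve; % inhibition vs vehicle, EC50 by 4-parameter fit.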

| SMILES | CC50 at 7 days [1] [µM] | EC50 [2] [µM] |
| --- | --- | --- |
| O=C(Nc1ccc(F)cc1)c1ccc(Cl)c(C(F)(F)C(=O)N2CCC(O)CC2)c1 [Example 36, 4-chloro-3-(1,1-difluoro-2-(4-hydroxypiperidin-1-yl)-2-oxoethyl)-N-(4-fluorophenyl)benzamide] | > 30 | < 5 |
| CNC(=O)NCC(=O)N1CC2CN(C(=O)C(F)(F)c3cc(C(=O)Nc4ccc(F)c(C)c4)ccc3F)CC2C1 (centres unmarked) [Example 284, 3-(1,1-difluoro-2-(5-((methylcarbamoyl)glycyl)hexahydropyrrolo[3,4-c]pyrrol-2(1H)-yl)-2-oxoethyl)-4-fluoro-N-(4-fluoro-3-methylphenyl)benzamide] | > 30 | 5 to 30 |
| CC(C)n1cc(NC(=O)c2ccc(F)c(C(F)(F)C(=O)N3CCC(O)C(F)(F)C3)c2)cn1 (centres unmarked) [Example 183, 3-(2-(3,3-difluoro-4-hydroxypiperidin-1-yl)-1,1-difluoro-2-oxoethyl)-4-fluoro-N-(1-isopropyl-1H-pyrazol-4-yl)benzamide] | > 30 | 5 to 30 |
| Cc1cc(NC(=O)c2ccc(F)c(C(F)(F)C(=O)N3[C@@H]4CNC[C@H]3COC4)c2)ccc1F [Example 208, 3-(2-((1R,5S)-3-oxa-7,9-diazabicyclo[3.3.1]nonan-9-yl)-1,1-difluoro-2-oxoethyl)-4-fluoro-N-(4-fluoro-3-methylphenyl)benzamide] | 5 to 30 | < 5 |
| Cc1cc(NC(=O)c2ccc(F)c(C(F)(F)C(=O)N3CCc4sc(N)nc4C3)c2)ccc1F [Example 308, 3-(2-(2-amino-6,7-dihydrothiazolo[4,5-c]pyridin-5(4H)-yl)-1,1-difluoro-2-oxoethyl)-4-fluoro-N-(4-fluoro-3-methylphenyl)benzamide] | 5 to 30 | < 5 |
| O=C(Nc1ccc(Cl)cc1)c1ccc(Cl)c(C(F)(F)C(=O)N2CCC(O)CC2)c1 [Example 39, 4-chloro-N-(4-chlorophenyl)-3-(1,1-difluoro-2-(4-hydroxypiperidin-1-yl)-2-oxoethyl)benzamide] | 5 to 30 | 5 to 30 |
| Cc1cc(NC(=O)c2cc(C(F)(F)C(=O)N[C@@H]3CCCC[C@H]3O)n(C)c2)ccc1F [Example 127, 5-(1,1-difluoro-2-(((1R,2R)-2-hydroxycyclohexyl)amino)-2-oxoethyl)-N-(4-fluoro-3-methylphenyl)-1-methyl-1H-pyrrole-3-carboxamide] | > 30 | < 5 |
| Cc1cc(NC(=O)c2ccc([C@@H](O)CO)c(C(F)(F)C(=O)NC(C)(C)C)c2)ccc1F [Example 117, (R)-3-(2-(tert-butylamino)-1,1-difluoro-2-oxoethyl)-4-(1,2-dihydroxyethyl)-N-(4-fluoro-3-methylphenyl)benzamide] | > 30 | > 30 |
| Cc1cc(NC(=O)c2ccc(F)c(C(F)(F)C(=O)N3C4CC[C@@H]3C[C@@H](C(=O)NCCO)C4)c2)ccc1F [Example 258, (1R,3s,5S)-8-(2,2-difluoro-2-(2-fluoro-5-((4-fluoro-3-methylphenyl)carbamoyl)phenyl)acetyl)-N-(2-hydroxyethyl)-8-azabicyclo[3.2.1]octane-3-carboxamide] | > 30 | < 5 |
| CCN(CCO)C(=O)C(F)(F)c1cc(C(=O)Nc2ccc(F)c(F)c2)ccc1F [Example 55, N-(3,4-difluorophenyl)-3-(2-(ethyl(2-hydroxyethyl)amino)-1,1-difluoro-2-oxoethyl)-4-fluorobenzamide] | > 30 | 5 to 30 |
| O=C(Nc1cc(F)c(F)c(F)c1)c1ccc(Cl)c(C(F)(F)C(=O)N2CCC(O)CC2)c1 [Example 34, 4-chloro-3-(1,1-difluoro-2-(4-hydroxypiperidin-1-yl)-2-oxoethyl)-N-(3,4,5-trifluorophenyl)benzamide] | 5 to 30 | < 5 |
| Cc1cc(NC(=O)c2cnc(C(F)(F)C(=O)N3CCC(O)CC3)s2)ccc1F [Example 44, 2-(1,1-difluoro-2-(4-hydroxypiperidin-1-yl)-2-oxoethyl)-N-(4-fluoro-3-methylphenyl)thiazole-5-carboxamide] | > 30 | > 30 |
| CC(C)n1cc(NC(=O)c2ccc(F)c(C(F)(F)C(=O)N3[C@@H]4CC[C@H]3C[C@@H](O)C4)c2)cn1 [Example 184, 3-(1,1-difluoro-2-((1R,3r,5S)-3-hydroxy-8-azabicyclo[3.2.1]octan-8-yl)-2-oxoethyl)-4-fluoro-N-(1-isopropyl-1H-pyrazol-4-yl)benzamide] | > 30 | 5 to 30 |
| Cc1cc(NC(=O)c2ccc(F)c(C(F)(F)C(=O)N3[C@@H]4CC[C@H]3C[C@H](O)C4)c2)cc(F)n1 [Example 223, 3-(1,1-difluoro-2-((1R,3s,5S)-3-hydroxy-8-azabicyclo[3.2.1]octan-8-yl)-2-oxoethyl)-4-fluoro-N-(2-fluoro-6-methylpyridin-4-yl)benzamide] | < 5 | < 5 |
| Cn1cc(NC(=O)c2ccc(F)c(C(F)(F)C(=O)N3CCC(O)CC3)c2)cn1 [Example 89, 3-(1,1-difluoro-2-(4-hydroxypiperidin-1-yl)-2-oxoethyl)-4-fluoro-N-(1-methyl-1H-pyrazol-4-yl)benzamide] | 5 to 30 | > 30 |
| COc1ccc(C(=O)Nc2ccc(F)c(C)c2)cc1C(F)(F)C(=O)N1CCC(O)CC1 [Example 94, 3-(1,1-difluoro-2-(4-hydroxypiperidin-1-yl)-2-oxoethyl)-N-(4-fluoro-3-methylphenyl)-4-methoxybenzamide] | > 30 | < 5 |
| Nc1nc2c(s1)CN(C(=O)C(F)(F)c1cc(C(=O)Nc3ccc(F)c(Cl)c3)ccc1F)CC2 [Example 279, 3-(2-(2-amino-6,7-dihydrothiazolo[5,4-c]pyridin-5(4H)-yl)-1,1-difluoro-2-oxoethyl)-N-(3-chloro-4-fluorophenyl)-4-fluorobenzamide] | 5 to 30 | < 5 |
| Cc1cc(NC(=O)c2cc(C(F)(F)C(=O)N3[C@@H]4CC[C@H]3C[C@H](O)C4)ccc2F)ccc1F [Example 220, 5-(1,1-difluoro-2-((1R,3s,5S)-3-hydroxy-8-azabicyclo[3.2.1]octan-8-yl)-2-oxoethyl)-2-fluoro-N-(4-fluoro-3-methylphenyl)benzamide] | 5 to 30 | < 5 |
| CC(=O)N1C[C@@H](C)N(C(=O)C(F)(F)c2cc(C(=O)Nc3ccc(F)c(C)c3)ccc2F)[C@@H](C)C1 [Example 294, 3-(2-((2S,6R)-4-acetyl-2,6-dimethylpiperazin-1-yl)-1,1-difluoro-2-oxoethyl)-4-fluoro-N-(4-fluoro-3-methylphenyl)benzamide] | 5 to 30 | < 5 |
| Cc1cc(NC(=O)c2ccc(F)c(C(F)(F)C(=O)N3CCC(NC(=O)OC(C)(C)C)CC3)c2)ccc1F [Example 229, tert-butyl (1-(2,2-difluoro-2-(2-fluoro-5-((4-fluoro-3-methylphenyl)carbamoyl)phenyl)acetyl)piperidin-4-yl)carbamate] | 5 to 30 | < 5 |
| Cc1cc(NC(=O)c2ccc(F)c(C(F)(F)C(=O)N[C@@H]3CCOC3=O)c2)ccc1F [Example 84, (R)-3-(1,1-difluoro-2-oxo-2-((2-oxotetrahydrofuran-3-yl)amino)ethyl)-4-fluoro-N-(4-fluoro-3-methylphenyl)benzamide] | > 30 | > 30 |
| Cc1cc(NC(=O)c2ccc(F)c(C(F)(F)C(=O)N[C@H]3CCCC[C@@H]3O)c2)ccc1F [Example 83, 3-(1,1-difluoro-2-(((1S,2S)-2-hydroxycyclohexyl)amino)-2-oxoethyl)-4-fluoro-N-(4-fluoro-3-methylphenyl)benzamide] | > 30 | 5 to 30 |
| Cc1cc(NC(=O)c2cc(C(F)(F)C(=O)N3CCC(O)CC3)ccc2Cl)ccc1F [Example 95, 2-chloro-5-(1,1-difluoro-2-(4-hydroxypiperidin-1-yl)-2-oxoethyl)-N-(4-fluoro-3-methylphenyl)benzamide] | > 30 | > 30 |
| O=C(Nc1ccc(F)c(F)c1)c1ccc(F)c(C(F)(F)C(=O)N(CCO)CCO)c1 [Example 16, 3-(2-(bis(2-hydroxyethyl)amino)-1,1-difluoro-2-oxoethyl)-N-(3,4-difluorophenyl)-4-fluorobenzamide] | > 30 | 5 to 30 |
| Cc1cc(NC(=O)c2cc(C(F)(F)C(=O)N[C@H]3CC[C@@H](O)CC3)n(C)c2)ccc1F [Example 125, 5-(1,1-difluoro-2-(((1s,4s)-4-hydroxycyclohexyl)amino)-2-oxoethyl)-N-(4-fluoro-3-methylphenyl)-1-methyl-1H-pyrrole-3-carboxamide] | > 30 | < 5 |
| Cc1cc(NC(=O)c2ccc(F)c(C(F)(F)C(=O)NC3(C#N)CC3)c2)ccc1F [Example 236, 3-(2-((1-cyanocyclopropyl)amino)-1,1-difluoro-2-oxoethyl)-4-fluoro-N-(4-fluoro-3-methylphenyl)benzamide] | > 30 | 5 to 30 |
| Cc1cc(NC(=O)c2ccc(F)c(C(F)(F)C(=O)N3CCC(N)C(F)(F)C3)c2)ccc1F (centres unmarked) [Example 334, 3-(2-(4-amino-3,3-difluoropiperidin-1-yl)-1,1-difluoro-2-oxoethyl)-4-fluoro-N-(4-fluoro-3-methylphenyl)benzamide] | 5 to 30 | < 5 |
| CC[C@H](C)NC(=O)C(F)(F)c1cc(C(=O)Nc2ccc(F)c(C)c2)cn1C [Example 103, (S)-5-(2-(sec-butylamino)-1,1-difluoro-2-oxoethyl)-N-(4-fluoro-3-methylphenyl)-1-methyl-1H-pyrrole-3-carboxamide] | 5 to 30 | < 5 |
